One block for each molecule: values may come before it.
System: 519858-162-T-J1-PDC complex spheroid viability
Assay: Anticancer human tumor 519858-162-T-J1-PDC patient-derived colon adenocarcinoma cell line growth inhibition [GQUAD]
Settings: for IC50: curve of first compound; for viability, T/C: stronger effect = lower value
How it was run: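 Tumor cells were grown as complex spheroids with HUVEC endothelial cells and mesenchymal stem cells as stroma. G-quadruplex stabilizers were combined with targeted agents over half-log dilutions from near the clinical Cmax, or from 10 microM.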

[1] = second compound 0.0316 µM, first compound 0.0316 µM
[2] = second compound 0.0316 µM, first compound 0.316 µM
[3] = second compound 0.1 µM, first compound 0.0316 µM
[4] = second compound 0.1 µM, first compound 0.316 µM
[5] = second compound 0.316 µM, first compound 0.0316 µM
[6] = second compound 0.316 µM, first compound 0.316 µM
[7] = second compound 1 µM, first compound 0.0316 µM
[8] = second compound 1 µM, first compound 0.316 µM
[9] = second compound 3.16 µM, first compound 0.0316 µM
[10] = second compound 3.16 µM, first compound 0.316 µM
[11] = second compound 10 µM, first compound 0.0316 µM
[12] = second compound 10 µM, first compound 0.316 µM
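Further: spheroids exposed to compounds for 7 days.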
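Wherever viability, T/C is given: 100% = DMSO vehicle control viability.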

IC50 (second compound 0.0316 µM): > 316 nM | IC50 (second compound 0.1 µM): > 316 nM | IC50 (second compound 0.316 µM): > 316 nM | IC50 (second compound 1 µM): > 316 nM | IC50 (second compound 3.16 µM): > 316 nM | IC50 (second compound 10 µM): < 0.999 nM
Compound: CC[C@@]1(O)C(=O)OCc2c1cc1n(c2=O)Cc2cc3c(CN(C)C)c(O)ccc3nc2-1 + Cc1cnc(CNC(=O)c2c(=O)c3ccc(N4CCCN(C)CC4)nc3n3c2sc2ccccc23)cn1
viability, T/C (second compound 0.0316 µM, first compound 0.000999 µM): 88% | viability, T/C (second compound 0.0316 µM, first compound 0.00316 µM): 91% | viability, T/C (second compound 0.0316 µM, first compound 0.00999 µM): 89.7% | viability, T/C [1]: 67.7% | viability, T/C (second compound 0.0316 µM, first compound 0.0999 µM): 78% | viability, T/C [2]: 83.7% | viability, T/C (second compound 0.1 µM, first compound 0.000999 µM): 93.8% | viability, T/C (second compound 0.1 µM, first compound 0.00316 µM): 89.3% | viability, T/C (second compound 0.1 µM, first compound 0.00999 µM): 84.5% | viability, T/C [3]: 79.5% | viability, T/C (second compound 0.1 µM, first compound 0.0999 µM): 70.9% | viability, T/C [4]: 59.4% | viability, T/C (second compound 0.316 µM, first compound 0.000999 µM): 90.1% | viability, T/C (second compound 0.316 µM, first compound 0.00316 µM): 86.8% | viability, T/C (second compound 0.316 µM, first compound 0.00999 µM): 96.5% | viability, T/C [5]: 78.8% | viability, T/C (second compound 0.316 µM, first compound 0.0999 µM): 80.7% | viability, T/C [6]: 74.6% | viability, T/C (second compound 1 µM, first compound 0.000999 µM): 66.1% | viability, T/C (second compound 1 µM, first compound 0.00316 µM): 58.9% | viability, T/C (second compound 1 µM, first compound 0.00999 µM): 72.8% | viability, T/C [7]: 49.7% | viability, T/C (second compound 1 µM, first compound 0.0999 µM): 59% | viability, T/C [8]: 62.9% | viability, T/C (second compound 3.16 µM, first compound 0.000999 µM): 67.2% | viability, T/C (second compound 3.16 µM, first compound 0.00316 µM): 43.9% | viability, T/C (second compound 3.16 µM, first compound 0.00999 µM): 75.9% | viability, T/C [9]: 43% | viability, T/C (second compound 3.16 µM, first compound 0.0999 µM): 38.2% | viability, T/C [10]: 64.4% | viability, T/C (second compound 10 µM, first compound 0.000999 µM): 58.5% | viability, T/C (second compound 10 µM, first compound 0.00316 µM): 34.9% | viability, T/C (second compound 10 µM, first compound 0.00999 µM): 40% | viability, T/C [11]: 41.2% | viability, T/C (second compound 10 µM, first compound 0.0999 µM): 37.8% | viability, T/C [12]: 37.6%

Compound: C=CC(=O)N1CCN(c2nc(=O)n(-c3c(C)ccnc3C(C)C)c3nc(-c4c(O)cccc4F)c(F)cc23)C(C)C1 (centres undefined) + CN(C)c1ccc(Nc2c3ccc(NC(=O)CCN4CCCC4)cc3nc3cc(NC(=O)CCN4CCCC4)ccc23)cc1
IC50 (second compound 0.0316 µM): > 10000 nM | IC50 (second compound 0.1 µM): > 10000 nM | IC50 (second compound 0.316 µM): > 10000 nM | IC50 (second compound 1 µM): > 10000 nM | IC50 (second compound 3.16 µM): > 10000 nM | IC50 (second compound 10 µM): < 31.6 nM | viability, T/C [1]: 91.5% | viability, T/C (second compound 0.0316 µM, first compound 0.1 µM): 84.4% | viability, T/C [2]: 61.4% | viability, T/C (second compound 0.0316 µM, first compound 1 µM): 69.3% | viability, T/C (second compound 0.0316 µM, first compound 3.16 µM): 94% | viability, T/C (second compound 0.0316 µM, first compound 10 µM): 110% | viability, T/C [3]: 81.7% | viability, T/C (second compound 0.1 µM, first compound 0.1 µM): 72.3% | viability, T/C [4]: 80.3% | viability, T/C (second compound 0.1 µM, first compound 1 µM): 61.8% | viability, T/C (second compound 0.1 µM, first compound 3.16 µM): 84.1% | viability, T/C (second compound 0.1 µM, first compound 10 µM): 95.8% | viability, T/C [5]: 88.3% | viability, T/C (second compound 0.316 µM, first compound 0.1 µM): 80.8% | viability, T/C [6]: 120% | viability, T/C (second compound 0.316 µM, first compound 1 µM): 68.8% | viability, T/C (second compound 0.316 µM, first compound 3.16 µM): 84% | viability, T/C (second compound 0.316 µM, first compound 10 µM): 60.1% | viability, T/C [7]: 78.8% | viability, T/C (second compound 1 µM, first compound 0.1 µM): 74.4% | viability, T/C [8]: 56.4% | viability, T/C (second compound 1 µM, first compound 1 µM): 69.3% | viability, T/C (second compound 1 µM, first compound 3.16 µM): 78.7% | viability, T/C (second compound 1 µM, first compound 10 µM): 80.3% | viability, T/C [9]: 62.3% | viability, T/C (second compound 3.16 µM, first compound 0.1 µM): 63.9% | viability, T/C [10]: 68.8% | viability, T/C (second compound 3.16 µM, first compound 1 µM): 62.2% | viability, T/C (second compound 3.16 µM, first compound 3.16 µM): 47.6% | viability, T/C (second compound 3.16 µM, first compound 10 µM): 94.9% | viability, T/C [11]: 48.2% | viability, T/C (second compound 10 µM, first compound 0.1 µM): 40.3% | viability, T/C [12]: 56.7% | viability, T/C (second compound 10 µM, first compound 1 µM): 61.5% | viability, T/C (second compound 10 µM, first compound 3.16 µM): 49.2% | viability, T/C (second compound 10 µM, first compound 10 µM): 66.5%
